Assay results taken from US20030114467A1, “Novel pyrazolo- and pyrrolo-pyrimidines and uses thereof” (priority 2001, published 2003).

Assay: Hydroxyapatite assay (hydroxyapatite adsorption chromatography, bone-targeting potential)
Type: physicochemical
Conditions: corrected retention K=(retention time-void time)/void; TSK-Gel HA 1000 HPLC column; linear gradient 10 mM to 500 mM sodium phosphate, 0.15 N NaCl, pH 6.8
Procedure: Hydroxyapatite is the principal mineral component of bone. Hydroxyapatite adsorption chromatography is used as an assay to evaluate the bone-targeting potential of both individual bone-targeting moieties (“monomers”) and of pharmaceuticals incorporating bone-targeting groups.
Method: The rentention time of a test compound is measured using a linear gradient from 10 mM sodium phosphate, 0.15 N NaCl, pH=6.8 to 500 mM sodium phosphate, 0.15 N NaCl, […] on a TSK-Gel HA 1000 high pressure liquid chromatography column (7.5 mm×75 mm). The rentention time of the compound is expressed in terms of K=(retention time-void time)/void. This K value is corrected using two reference compounds to correct from inter-column and inter-system variation to obtain a K′ value.
Reference Compounds: K′ values were determined for known bone targeted compounds, the bisphosphonate, alendronate and tetracycline.

NCCCC(O)(P(=O)(O)O)P(=O)(O)O [Alendronate, alendronate]
K′ value: 3.7
